Data on three compounds can be found in patent US20210330611A1, “THERAPY FOR NEUROLOGICAL DISEASES/DISORDERS” (priority 2020, published 2021).

Data set [1] concerns fibrin-induced microglia activation. Kind of data set: Image-based assay of fibrin-induced microglia activation (HTS and dose response). The settings on record: for IC50 / inhibition at 10 µM: Rattus norvegicus, Microglia; for inhibition at 10 µM: primary microglia HTS, fibrin stimulation, increased cell size (>800 μm^2) as marker of activation, read-out: Fibrin % inhibition. The class given is cell-based, rat.

The nature of data set [2]: in vitro. The settings on record: rat, Cell Toxicity IC50 (uM) [cFib assay].
Data set [3] relates to fibrin- and LPS-induced microglia activation. Kind of data set: cells. It is filed as cell-based, rat. The conditions noted are these: for inhibition at 10 µM: Rattus norvegicus.
Data set [4] deals with primary rat microglia. The conditions noted are these: rat.
Data set [5] has as its system primary rat microglia. The settings on record: rat. The source holds these as a separate data set.
Data set [6] can be described thus: in vitro. The settings on record: rat.
The test system of data set [7] is LPS-induced microglia activation. The experiment in a line: Image-based assay of LPS-induced microglia activation (HTS and dose response). The conditions noted are these: Rattus norvegicus, Microglia; for inhibition at 10 µM: primary microglia HTS, LPS stimulation, increased cell size (>800 μm^2) as marker of activation, read-out: LPS % inhibition. The class given is cell-based, rat.

[8] abbreviates: 48 h, Table 1, dose response 0.001-20 μM, triplicates, primary rat microglia, 48 h, read-out: Fibrin IC50.
Setting [9] is: dose response, fibrin-induced microglia activation, read-out: Fibrin IC50.
Where [10] appears, read: fibrin-induced microglia activation, dose response, read-out: Fibrin IC50 (uM) (Suppl. Table 7).
The mark [11] stands for this setting: HTS of 1907 compounds, quadrant by fibrin and LPS inhibition.
Setting [12] is: Microglia, HTS hit classification, read-out: Hit.
The mark [13] stands for this setting: quadrant by fibrin and LPS inhibition in HTS of 1907 compounds.
[14] abbreviates: 48 h, Table 1, dose response 0.001-20 μM, triplicates, primary rat microglia, 48 h, read-out: LPS IC50.
Setting [15] is: LPS-induced microglia activation, dose response, read-out: LPS IC50 (uM) (Suppl. Table 7).
Where [16] appears, read: dose response, LPS-induced microglia activation, read-out: LPS IC50.
Where [17] appears, read: hit classification in microglia HTS, read-out: Cherry-picked Hit (Suppl. Table 7).

The structures appear in SMILES notation. Where a name gives a salt, the structure may show the parent alone. Read-outs that look alike come from different tables or passages of the source.
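For Fibrin % cell toxicity in this document: share of dead cells sized under 150 µm2 at 10 µM in fibrin-stimulated microglia HTS.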

For the compound `CC(=O)OCC(=O)[C@@]1(O)[C@H](OC(C)=O)C[C@H]2[C@@H]3CCC4=CC(=O)C=C[C@]4(C)[C@@]3(F)[C@@H](O)C[C@@]21C` [Triamcinolone diacetate, reference compound], the “Fibrin Selectivity” value in data set [1] came out at 17. The “Fibrin Selectivity (LOG10)” value in data set [1] is 1.23. Also, the IC50 in data set [1] (setting [8]) was 0.04 µM; in data set [1] (Table 3, read-out: Fibrin IC50 (uM) (Suppl. Table 7)) it was 0.04 µM; in data set [1] (Table 7, read-out: fib_IC50), 0.002 µM; in data set [1] (setting [9]) it was 0.04 µM; in data set [1] (setting [10]) it was 0.04 µM; in data set [2], greater than 20 µM. In addition, the IC50 in data set [6] is greater than 20 µM; in data set [7] (setting [14]), 0.8 µM; in data set [7] (setting [15]) it was 0.8 µM; in data set [7] (Table 3, read-out: LPS IC50 (uM) (Suppl. Table 7)) it was 0.8 µM; in data set [7] (Table 7, read-out: LPS_IC50) it was 0.002 µM; in data set [7] (setting [16]), 0.8 µM. Besides, the inhibition at 10 µM in data set [1] is 110%; in data set [3] (Microglia, Table 3, read-out: Cherry-picked Hit (Suppl. Table 7)) it was greater than 50%; in data set [3] (setting [12]), greater than 50%; in data set [7] (48 h), 100%. Moreover, the “Quadrant (FIG. 5b)” value in data set [3] (setting [11]) is “Q2”; in data set [3] (Table 1, screen at 10 μM), “Q2”; in data set [3] (Table 2, screen at 10 μM) it was “Q2”; in data set [3] (Table 3, screen at 10 μM) it was “Q2”; in data set [3] (setting [13]), “Q2”. Further, in data set [3] (Table 7, fib = fibrin, LPS, tox = toxicity), the Activity entry was “fib/LPS”. The “Fibrin % cell toxicity” value in data set [4] amounted to 2%. Besides, the “LPS % cell toxicity” value in data set [5] is reported as 5%.
Turning to `CN1CCN(CCCN2c3ccccc3Sc3ccc(C(F)(F)F)cc32)CC1` [Trifluoperazine dihydrochloride, reference compound], the IC50 in data set [1] (setting [8]) is 12 µM; in data set [1] (setting [9]), 12 µM; in data set [1] (setting [10]), 12 µM; in data set [2] (cFib assay) it was greater than 20 µM; in data set [6] it was 12 µM; in data set [7] (setting [14]) it was 6 µM. Also, the IC50 in data set [7] (setting [15]) and in data set [7] (setting [16]) was 6 µM in each case. Besides, the inhibition at 10 µM in data set [1] is 69%; in data set [3] (setting [12]) it was greater than 50%; in data set [3] (setting [17]) it was greater than 50%; in data set [7] (48 h) it was 26%. Moreover, the “Quadrant (FIG. 5b)” value in data set [3] (setting [11]) is on record as “Q3”; in data set [3] (Table 1, screen at 10 μM), “Q3”; in data set [3] (setting [13]), “Q3”. For the same compound, the “Fibrin % cell toxicity” value in data set [4] is listed as 2%. Further, in data set [5], the “LPS % cell toxicity” value came to 0%.
Turning to `CC(CN(C)C)CN1c2ccccc2CCc2ccccc21` (stereo not drawn) [Trimipramine maleate, reference compound], the IC50 is 7 µM in data set [1] (setting [8]); 7 µM in data set [1] (setting [9]); 7 µM in data set [1] (setting [10]); greater than 20 µM in data set [2] (cFib assay); 12 µM in data set [6]; 5 µM in data set [7] (setting [14]). Further, the IC50 in data set [7] (setting [15]) and in data set [7] (setting [16]) was 5 µM each time. Also, the inhibition at 10 µM in data set [1] was 52%; in data set [3] (setting [12]), greater than 50%; in data set [3] (setting [17]), greater than 50%; in data set [7] (48 h) it was 92%. For the same compound, the “Quadrant (FIG. 5b)” value in data set [3] (setting [11]) is “Q2”; in data set [3] (Table 1, screen at 10 μM), “Q2”; in data set [3] (setting [13]), “Q2”. The “Fibrin % cell toxicity” value in data set [4] amounted to 1%. Moreover, in data set [5], the “LPS % cell toxicity” value is recorded as 5%.
